The target in one assay is Human JNK1α1 (Homo sapiens (Human), UniProt P45983). The experiment in a line: JNK assay in vitro: phosphorylation of GST-ATF2 (19-96) with [γ-33P] ATP, JNK1. It counts as biochemical. The following applies: 2 nM enzyme, 1 μM ATF2, 6 μM ATP (Km), 30° C. 30 min. How it is done: JNK activity was measured by phosphorylation of GST-ATF2 (19-96) with [γ-^33P] ATP. […] Human JNK2α2 assay contains 1 nM enzyme, 1 μM ATF2, 8 μM ATP with 1 uCi [γ-^33P] ATP. Human JNK1α1 assay contains 2 nM enzyme, 1 μM ATF2, 6 μM ATP with 1 μCi [γ-^33P] ATP. […] ATP. The enzyme assay was carried out in the presence or absence of several compound concentrations. JNK and compound were pre-incubated for 10 min., followed by initiation of the enzymatic reaction by adding ATP and the substrate. The reaction mixture was incubated at 30° C. for 30 min. […] The incorporation of ^33P into ATF2 was quantified on a microplate scintillation counter (Packard Topcount). Compound inhibition potency on JNK was measured by IC50 value generated from ten concentration inhibition curves fitted into the 3-parameter model: % inhibition=Maximum/(1+(IC50/[Inhibitor])^slope). Data were analyzed on Microsoft Excel for parameter estimation.
Chain of Human JNK1α1 (P45983 other isoform, or with tags, fused parts or gaps): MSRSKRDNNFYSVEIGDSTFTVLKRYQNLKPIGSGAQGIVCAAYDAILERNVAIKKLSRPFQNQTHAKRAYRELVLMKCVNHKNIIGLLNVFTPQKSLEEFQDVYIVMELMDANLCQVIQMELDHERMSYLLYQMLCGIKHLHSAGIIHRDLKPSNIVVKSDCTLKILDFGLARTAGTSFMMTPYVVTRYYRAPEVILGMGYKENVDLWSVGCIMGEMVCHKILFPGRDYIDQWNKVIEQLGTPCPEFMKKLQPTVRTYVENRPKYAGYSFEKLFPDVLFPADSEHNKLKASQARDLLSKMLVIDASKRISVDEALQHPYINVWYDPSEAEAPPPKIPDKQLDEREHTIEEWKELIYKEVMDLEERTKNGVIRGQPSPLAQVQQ

The target in a further assay is Human JNK2α2 (Homo sapiens (Human), UniProt P45984). The experiment in a line: JNK assay in vitro: phosphorylation of GST-ATF2 (19-96) with [γ-33P] ATP, JNK2. The note with it: 1 nM enzyme, 1 μM ATF2, 8 μM ATP (Km), 30° C. 30 min. It counts as biochemical. How it is done:
JNK activity was measured by phosphorylation of GST-ATF2 (19-96) with [γ-^33P] ATP. […] Human JNK2α2 assay contains 1 nM enzyme, 1 μM ATF2, 8 μM ATP with 1 uCi [γ-^33P] ATP. Human JNK1α1 assay contains 2 nM enzyme, 1 μM ATF2, 6 μM ATP with 1 μCi [γ-^33P] ATP. Human JNK3 (Upstate Biotech #14-501M) assay contains 2 nM enzyme, 1 μM ATF2, 4 μM ATP with 1 μCi [γ-^33P] ATP. The enzyme assay was carried out in the presence or absence of several compound concentrations. JNK and compound were pre-incubated for 10 min., followed by initiation of the enzymatic reaction by adding ATP and the substrate. The reaction mixture was incubated at 30° C. for 30 min. At the end of incubation, the reaction was terminated by transferring 25 μl of the reaction mixture to 150 μl of 10% glutathione Sepharose® slurry (Amersham #27-4574-01) containing 135 mM EDTA. The reaction product was captured on the affinity resin, and washed on a filtration plate (Millipore, MABVNOB50) with phosphate buffered saline for six times to remove free radionucleotide. The incorporation of ^33P into ATF2 was quantified on a microplate scintillation counter (Packard Topcount). Compound inhibition potency on JNK was measured by IC50 value generated from ten concentration inhibition curves fitted into the 3-parameter model: % inhibition=Maximum/(1+(IC50/[Inhibitor])^slope). Data were analyzed on Microsoft Excel for parameter estimation.

Chain of Human JNK2α2 (P45984 whole entry): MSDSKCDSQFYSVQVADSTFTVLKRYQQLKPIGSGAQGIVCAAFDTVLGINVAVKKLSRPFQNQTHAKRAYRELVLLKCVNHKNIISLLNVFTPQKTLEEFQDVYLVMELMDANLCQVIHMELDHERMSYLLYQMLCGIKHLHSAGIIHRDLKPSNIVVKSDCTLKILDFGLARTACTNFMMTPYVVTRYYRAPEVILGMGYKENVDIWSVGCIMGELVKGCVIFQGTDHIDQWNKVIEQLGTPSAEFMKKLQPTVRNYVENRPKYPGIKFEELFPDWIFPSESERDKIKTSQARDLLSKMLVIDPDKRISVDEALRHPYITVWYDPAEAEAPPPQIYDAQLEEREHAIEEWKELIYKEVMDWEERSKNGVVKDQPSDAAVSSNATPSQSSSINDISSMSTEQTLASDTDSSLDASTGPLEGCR

As to `O[C@H]1CC[C@H](Nc2nccc(-n3ccc4c(N5CCCCC5)cccc43)n2)CC1` [Compound I-2, 4-[4-(4-Piperidin-1-yl-indol-1-yl)-pyrimidin-2-ylamino]-cyclohexanol], the IC50 came out at 93.9 nM at Human JNK1α1 and 654 nM against Human JNK2α2.
Taken in the same sequence, the figures for `CS(=O)(=O)N[C@H]1CC[C@H](Nc2nccc(-n3ccc4c(N5CCC(O)CC5)cccc43)n2)CC1` [Compound I-4, N-(4-{4-[4-(4-Hydroxy-piperidin-1-yl)-indol-1-yl]-pyrimidin-2-ylamino}-cyclohexyl)-methanesulfonamide] were 42.9 nM and 292 nM.
Turning to `CC(=O)N1CCN(c2cccc3c2ccn3-c2ccnc(N[C@H]3CC[C@H](N(C)S(C)(=O)=O)CC3)n2)CC1` [Compound I-5, N-(4-{4-[4-(4-Acetyl-piperazin-1-yl)-indol-1-yl]-pyrimidin-2-ylamino}-cyclohexyl)-N-methyl-methanesulfonamide], the IC50 at Human JNK1α1 was determined as 10.3 nM; against Human JNK2α2 it was 105 nM.
On to `CS(=O)(=O)N[C@H]1CC[C@H](Nc2nccc(-n3ccc4c(N5CCC(S(C)(=O)=O)CC5)cccc43)n2)CC1` [Compound I-6, N-(4-{4-[4-(4-Methanesulfonyl-piperidin-1-yl)-indol-1-yl]-pyrimidin-2-ylamino}-cyclohexyl)-methanesulfonamide], for which the results for the IC50 against Human JNK1α1 and against Human JNK2α2 were 3 nM and 23.5 nM, respectively.
On Human JNK2α2, `N#CCC(=O)O[C@H]1CCC[C@H](Nc2nccc(-n3ccc4c(N5CCN(C(=O)CC#N)CC5)cccc43)n2)C1` [Compound I-36, Cyano-acetic acid (1S,3S)-3-(4-{4-[4-(2-cyano-acetyl)-piperazin-1-yl]-indol-1-yl}-pyrimidin-2-ylamino)-cyclohexyl ester] returned an IC50 of 168 nM.
On the same count and under the same terms, the figure for `N#CCC(=O)N1CCN(c2cccc3c2ccn3-c2ccnc(NC3CCCCC3)n2)CC1` [Compound I-38, 3-{4-[1-(2-Cyclohexylamino-pyrimidin-4-yl)-1H-indol-4-yl]-piperazin-1-yl}-3-oxo-propionitrile] is 42.8 nM; for `COCCO[C@H]1CC[C@H](Nc2nccc(-n3ccc4c(N5CCN(C(C)=O)CC5)cccc43)n2)CC1` [Compound I-39, 1-[4-(1-{2-[4-(2-Methoxy-ethoxy)-cyclohexylamino]-pyrimidin-4-yl}-1H-indol-4-yl)-piperazin-1-yl]-ethanone] it is 406 nM; for `COCCO[C@H]1CC[C@H](Nc2nccc(-n3ccc4c(N5CCN(C(=O)CC#N)CC5)cccc43)n2)CC1` [Compound I-40, 3-[4-(1-{2-[4-(2-Methoxy-ethoxy)-cyclohexylamino]-pyrimidin-4-yl}-1H-indol-4-yl)-piperazin-1-yl]-3-oxo-propionitrile] it is 35 nM.
The same measure, in the same setting: the figure for `CC(=O)N1CCN(c2cccc3c2ccn3-c2ccnc(N[C@H]3CC[C@H](C(C)(C)O)CC3)n2)CC1` [Compound I-43, 1-[4-(1-{2-[4-(1-Hydroxy-1-methyl-ethyl)-cyclohexylamino]-pyrimidin-4-yl}-1H-indol-4-yl)-piperazin-1-yl]-ethanone] is 432 nM; for `CS(=O)(=O)N(CCO)[C@H]1CC[C@H](Nc2nccc(-n3ccc4c(N5CCN(C(=O)CC#N)CC5)cccc43)n2)CC1` [Compound I-44, N-[4-(4-{4-[4-(2-Cyano-acetyl)-piperazin-1-yl]-indol-1-yl}-pyrimidin-2-ylamino)-cyclohexyl]-N-(2-hydroxy-ethyl)-methanesulfonamide] it is 19.2 nM.
The same measure, in the same setting: then `CC(C)(O)[C@H]1CC[C@H](Nc2nccc(-n3ccc4c(N5CCN(C(=O)CC#N)CC5)cccc43)n2)CC1` [Compound I-45, 3-[4-(1-{2-[4-(1-Hydroxy-1-methyl-ethyl)-cyclohexylamino]-pyrimidin-4-yl}-1H-indol-4-yl)-piperazin-1-yl]-3-oxo-propionitrile], with 33.4 nM; and `CCN1CCN(C(=O)[C@H]2CC[C@H](Nc3nccc(-n4ccc5c(N6CCC(S(C)(=O)=O)CC6)cccc54)n3)CC2)CC1` [Compound I-46, (4-Ethyl-piperazin-1-yl)-(4-{4-[4-(4-methanesulfonyl-piperidin-1-yl)-indol-1-yl]-pyrimidin-2-ylamino}-cyclohexyl)-methanone], with 36 nM.
Compound `CS(=O)(=O)C1CCN(c2cccc3c2ccn3-c2ccnc(N[C@H]3CC[C@H](C(=O)N4CCN(C5CC5)CC4)CC3)n2)CC1` [Compound I-47, (4-Cyclopropyl-piperazin-1-yl)-(4-{4-[4-(4-methanesulfonyl-piperidin-1-yl)-indol-1-yl]-pyrimidin-2-ylamino}-cyclohexyl)-methanone] yielded an IC50 on Human JNK2α2 of 29.6 nM.
On the same count and under the same terms, then `CC(C)(C)N1CCN(C(=O)[C@H]2CC[C@H](Nc3nccc(-n4ccc5c(N6CCC(S(C)(=O)=O)CC6)cccc54)n3)CC2)CC1` [Compound I-48, (4-tert-Butyl-piperazin-1-yl)-(4-{4-[4-(4-methanesulfonyl-piperidin-1-yl)-indol-1-yl]-pyrimidin-2-ylamino}-cyclohexyl)-methanone], with 54.5 nM; and `CS(=O)(=O)C1CCN(c2cccc3c2ccn3-c2ccnc(N[C@H]3CC[C@H](C(=O)N4CCN(C5CCC5)CC4)CC3)n2)CC1` [Compound I-49, (4-Cyclobutyl-piperazin-1-yl)-(4-{4-[4-(4-methanesulfonyl-piperidin-1-yl)-indol-1-yl]-pyrimidin-2-ylamino}-cyclohexyl)-methanone], with 59.8 nM.
With `CS(=O)(=O)C1CCN(c2cccc3c2ccn3-c2ccnc(N[C@H]3CC[C@H](C(=O)N4CCN5CCCCC5C4)CC3)n2)CC1` (stereo partly drawn) [Compound I-50, (4-{4-[4-(4-Methanesulfonyl-piperidin-1-yl)-indol-1-yl]-pyrimidin-2-ylamino}-cyclohexyl)-(octahydro-pyrido[1,2-a]pyrazin-2-yl)-methanone], on Human JNK2α2, it took 15.6 nM to reach half-maximal inhibition (IC50).
Same read-out and setting: then `CS(=O)(=O)C1CCN(c2cccc3c2ccn3-c2ccnc(N[C@H]3CC[C@H](C(=O)N4CCN5CCCC5C4)CC3)n2)CC1` (stereo partly drawn) [Compound I-52, (Hexahydro-pyrrolo[1,2-a]pyrazin-2-yl)-(4-{4-[4-(4-methanesulfonyl-piperidin-1-yl)-indol-1-yl]-pyrimidin-2-ylamino}-cyclohexyl)-methanone], with 21.8 nM; and `CS(=O)(=O)C1CCN(c2cccc3c2ccn3-c2ccnc(N[C@H]3CC[C@H](C(=O)N4CCn5ccnc5C4)CC3)n2)CC1` [Compound I-54, (5,6-Dihydro-8H-imidazo[1,2-a]pyrazin-7-yl)-(4-{4-[4-(4-methanesulfonyl-piperidin-1-yl)-indol-1-yl]-pyrimidin-2-ylamino}-cyclohexyl)-methanone], with 15.2 nM.
Same read-out and setting: the figure for `N#CCC(=O)N1CCN(c2cccc3c2ccn3-c2ccnc(N[C@H]3CC[C@@H](O)C3)n2)CC1` [Compound I-58, 3-(4-{1-[2-((1S,3R)-3-Hydroxy-cyclopentylamino)-pyrimidin-4-yl]-1H-indol-4-yl}-piperazin-1-yl)-3-oxo-propionitrile] is 806 nM; for `N#CCC(=O)N1CCN(c2cccc3c2ccn3-c2ccnc(N[C@@H]3CC[C@H](O)C3)n2)CC1` [Compound I-59, 3-(4-{1-[2-((1R,3S)-3-Hydroxy-cyclopentylamino)-pyrimidin-4-yl]-1H-indol-4-yl}-piperazin-1-yl)-3-oxo-propionitrile] it is 570 nM.
As to `N#CCC(=O)N1CCN(c2cccc3c2ccn3-c2ccnc(N[C@H]3CC[C@H](O)C3)n2)CC1` [Compound I-60, 3-(4-{1-[2-((1S,3S)-3-Hydroxy-cyclopentylamino)-pyrimidin-4-yl]-1H-indol-4-yl}-piperazin-1-yl)-3-oxo-propionitrile], half-maximal inhibition against Human JNK2α2 (IC50) was put at 150 nM.
On the same count and under the same terms, the figure for `N#CCC(=O)N1CCN(c2cccc3c2ccn3-c2ccnc(N[C@@H]3CC[C@@H](O)C3)n2)CC1` [Compound I-61, 3-(4-{1-[2-((1R,3R)-3-Hydroxy-cyclopentylamino)-pyrimidin-4-yl]-1H-indol-4-yl}-piperazin-1-yl)-3-oxo-propionitrile] is 105 nM; for `CC(=O)N1CCN(c2cccc3c2c(C(N)=O)cn3-c2ccnc(N[C@H]3CC[C@H](CS(C)(=O)=O)CC3)n2)CC1` [Compound I-64, 4-(4-Acetyl-piperazin-1-yl)-1-[2-(4-methanesulfonylmethyl-cyclohexylamino)-pyrimidin-4-yl]-1H-indole-3-carboxylic acid amide] it is 13.9 nM.

One may read the IC50 as the concentration at which inhibition is half-maximal.

Source of the values: patent US8536172B2, “Inhibitors of JNK” (Roche Palo Alto LLC, priority 2009, dated 2013).
